Source: patent US20130302442A1, “METHODS OF USING (4S,4AS,5AR,12AS)-4-DIMETHYLAMINO-3,10,12,12A-TETRAHYDROXY-7-[(METHOXY(METHYL)AMINO)-METHYL]-1,11-DIOXO-1,4,4A,5,5A,6,11,12A-OCTAHYDRO-NAPHTHACENE-2-CARBOXYLIC ACID AMIDE” (priority 2012, published 2013)
Converted amounts (≈) assume the structure as drawn. Read-outs that look alike come from different tables or passages of the source.

Assays:
[1] = test system: Bifidobacterium bifidum; experiment: In vitro MIC testing against anaerobic bacteria; assay type: cell-based; conditions: ATCC15696; Bifidobacterium bifidum 3965, ATCC 15696
[2] = test system: Bifidobacterium brevi; experiment: In vitro MIC testing against anaerobic bacteria; assay type: cell-based; conditions: ATCC15698; Bifidobacterium brevi 3967, ATCC 15698
[3] = test system: Bifidobacterium infantis; experiment: In vitro MIC testing against anaerobic bacteria; assay type: cell-based; conditions: ATCC15702; Bifidobacterium infantis 3966, ATCC 15702
[4] = test system: Bifidobacterium longum; experiment: In vitro MIC testing against anaerobic bacteria; assay type: cell-based; conditions: ATCC15707; Bifidobacterium longum 3968, ATCC 15707
[5] = test system: Clostridium perfringens; experiment: microbe, parasite or virus in culture; assay type: cell-based
[6] = test system: Clostridium difficile; experiment: In vitro MIC testing against anaerobic bacteria; assay type: cell-based
[7] = test system: Lactobacillus acidophilus; experiment: In vitro MIC testing against anaerobic bacteria; assay type: cell-based; conditions: Lactobacillus acidophilus 0681
[8] = test system: Lactobacillus casei; experiment: In vitro MIC testing against anaerobic bacteria; assay type: cell-based; conditions: Lacticaseibacillus casei, ATCC393; Lactobacillus casei 1722, ATCC 393
[9] = test system: Lactobacillus plantarum; experiment: In vitro MIC testing against anaerobic bacteria; assay type: cell-based; conditions: Lactiplantibacillus plantarum, ATCC39268; Lactobacillus plantarum 2791, ATCC 39268
[10] = test system: Peptostreptococcus micros; experiment: In vitro MIC testing against anaerobic bacteria; assay type: cell-based; conditions: Parvimonas micra, read-out: MIC
[11] = test system: Streptococcus intermedius; experiment: In vitro MIC testing against anaerobic bacteria; assay type: cell-based; conditions: ATCC27335; Streptococcus intermedius 1203, ATCC 27335
[12] = test system: Bacteroides thetaiotaomicron; experiment: In vitro MIC testing against anaerobic bacteria; assay type: cell-based
[13] = test system: Bacteroides vulgatus; experiment: In vitro MIC testing against anaerobic bacteria; assay type: cell-based
[14] = test system: Eikenella corrodens; experiment: In vitro MIC testing against anaerobic bacteria; assay type: cell-based; conditions: Eikenella corrodens, ATCC43278
[15] = test system: Fusobacterium necrophorum; experiment: In vitro MIC testing against anaerobic bacteria; assay type: cell-based; conditions: ATCC25286; Fusobacterium necrophorum 3963, ATCC 25286; read-out: MIC
[16] = test system: Fusobacterium nucleatum; experiment: In vitro MIC testing against anaerobic bacteria; assay type: cell-based; conditions: ATCC25586; Fusobacterium nucleatum 3962, ATCC 25586; read-out: MIC
[17] = test system: Porphyromonas asaccharolytica; experiment: In vitro MIC testing against anaerobic bacteria; assay type: cell-based
[18] = test system: Prevotella melaninogenica; experiment: In vitro MIC testing against anaerobic bacteria; assay type: cell-based; conditions: Prevotella melaninogenica 3443, read-out: MIC
[19] = test system: Veillonella parvula; experiment: In vitro MIC testing against anaerobic bacteria; assay type: cell-based; conditions: ATCC17745; Veillonella parvula 1272, ATCC 17745
[20] = test system: P. granulosum; experiment: In vitro MIC testing, antibacterial spectrum of activity; assay type: cell-based; conditions: P. granulosum [clinical isolates] (3 isolates)
[21] = test system: P. avidum; experiment: as above; assay type: cell-based; conditions: P. avidum [clinical isolates] (4 isolates)
[22] = test system: S. epidermidis; experiment: as above; assay type: cell-based, Staphylococcus epidermidis; conditions: for MIC50 / MIC90: Staphylococcus epidermidis; for MIC50: read-out: MIC50; for MIC90: read-out: MIC90
[23] = test system: S. pneumoniae; experiment: as above; assay type: cell-based, Streptococcus pneumoniae
[24] = test system: S. pyogenes; experiment: as above; assay type: cell-based
[25] = test system: S. agalactiae; experiment: as above; assay type: cell-based
[26] = test system: S. haemolyticus; experiment: as above; assay type: cell-based; conditions: S. haemolyticus (33 isolates)
[27] = test system: Streptococcus spp. [Group C]; experiment: as above; assay type: cell-based; conditions: Streptococcus spp. [Group C] (30 isolates); read-out: MIC50
[28] = test system: E. faecalis; experiment: as above; assay type: cell-based
[29] = test system: E. faecium; experiment: as above; assay type: cell-based; conditions: for MIC / MIC50 / MIC90: Enterococcus faecium; for MIC50: read-out: MIC50; for MIC90: read-out: MIC90
[30] = test system: E. coli; experiment: as above; assay type: cell-based; conditions: E. coli [tetS] (7 isolates)
[31] = test system: K. pneumoniae; experiment: as above; assay type: cell-based; conditions: Klebsiella pneumoniae
[32] = S. epidermidis [MRSE] (32 isolates)
[33] = S. epidermidis [MSSE] (31 isolates)

Molecule CN(C)c1ccc(O)c2c1C[C@H]1C[C@H]3[C@H](N(C)C)C(O)=C(C(N)=O)C(=O)[C@@]3(O)C(O)=C1C2=O [Minocycline, minocycline] has an MIC [1] of 0.25 µg/mL (≈ 0.546 µM), an MIC [2] of 0.25 µg/mL (≈ 0.546 µM) and an MIC [3] of 0.25 µg/mL (≈ 0.546 µM). It also gave an MIC [4] of 1 µg/mL (≈ 2.19 µM), an MIC [5] of 8 µg/mL (≈ 17.5 µM) and an MIC ([6]; Clostridioides difficile) of 0.03 µg/mL (≈ 0.0656 µM). It also gave an MIC ([6]; Clostridium difficile 3584) of 0.03 µg/mL (≈ 0.0656 µM), an MIC [7] of 0.5 µg/mL (≈ 1.09 µM) and an MIC [8] of 0.5 µg/mL (≈ 1.09 µM). It also gave an MIC [9] of 0.5 µg/mL (≈ 1.09 µM), an MIC ([10]; Peptostreptococcus micros 3432) of 0.06 µg/mL (≈ 0.131 µM) and an MIC ([10]; Peptostreptococcus micros 3545) of 0.25 µg/mL (≈ 0.546 µM). It also gave an MIC [11] of 0.25 µg/mL (≈ 0.546 µM), an MIC ([12]; Bacteroides thetaiotaomicron 3399) of 0.03 µg/mL (≈ 0.0656 µM) and an MIC ([12]; Bacteroides thetaiotaomicron 3496) of 8 µg/mL (≈ 17.5 µM). The MIC ([13]; Bacteroides vulgatus 3494) was 8 µg/mL (≈ 17.5 µM), the MIC ([13]; Phocaeicola vulgatus, Bacteroides vulgatus 3389, read-out: MIC) was 8 µg/mL (≈ 17.5 µM) and the MIC [14] was 0.03 µg/mL (≈ 0.0656 µM). The MIC [15] was 0.06 µg/mL (≈ 0.131 µM), the MIC [16] was 0.06 µg/mL (≈ 0.131 µM) and the MIC ([17]; Porphyromonas asaccharolytica 3552, read-out: MIC) was 8 µg/mL (≈ 17.5 µM). It also gave an MIC ([17]; Porphyromonas asaccharolytica 3557, read-out: MIC) of 4 µg/mL (≈ 8.74 µM), an MIC [18] of 1 µg/mL (≈ 2.19 µM) and an MIC [19] of 0.5 µg/mL (≈ 1.09 µM). The “MIC Range” value [20] was 0.25 to 0.5 µg/mL, the “MIC Range” value [21] was 0.25 to 2 µg/mL and the “MIC Range” value [22, 32] was 0.06 to 0.5 µg/mL. The “MIC Range” value [22, 33] was 0.06 to 0.25 µg/mL, the MIC50 [22, 32] was 0.12 µg/mL (≈ 0.262 µM) and the MIC90 [22, 32] was 0.25 µg/mL (≈ 0.546 µM). The MIC50 [22, 33] was 0.06 µg/mL (≈ 0.131 µM), the MIC90 [22, 33] was 0.25 µg/mL (≈ 0.546 µM) and the “MIC Range” value ([23]; S. pneumoniae [tetS] (5 isolates)) was 0.25-0.25 μg/mL. The MIC50 ([23]; Streptococcus pneumoniae, S. pneumoniae [PSSP] (32 isolates), read-out: MIC50) was 0.06 µg/mL (≈ 0.131 µM), the MIC90 ([23]; Streptococcus pneumoniae, S. pneumoniae [PSSP] (32 isolates), read-out: MIC90) was 0.12 µg/mL (≈ 0.262 µM) and the “MIC Range” value ([24]; S. pyogenes [tetS] (5 isolates)) was 0.25 to 0.5 µg/mL. For the same molecule, the MIC ([24]; Streptococcus pyogenes, S. pyogenes strain PBS # 330, tetO) was 8 µg/mL (≈ 17.5 µM), the MIC50 ([24]; Streptococcus pyogenes, S. pyogenes (32 isolates), read-out: MIC50) was 0.06 µg/mL (≈ 0.131 µM) and the “MIC Range” value ([25]; S. agalactiae [tetS] (3 isolates)) was 0.5-0.5 μg/mL. For the same molecule, the MIC50 ([25]; Streptococcus agalactiae, S. agalactiae (31 isolates), read-out: MIC50) was 16 µg/mL (≈ 35 µM), the MIC90 ([25]; Streptococcus agalactiae, S. agalactiae (31 isolates), read-out: MIC90) was 16 µg/mL (≈ 35 µM) and the “MIC Range” value [26] was “≦0.03-0.5 μg/mL”. The MIC50 ([26]; Staphylococcus haemolyticus, read-out: MIC50) was 0.06 µg/mL (≈ 0.131 µM), the MIC90 ([26]; Staphylococcus haemolyticus, read-out: MIC90) was 0.5 µg/mL (≈ 1.09 µM) and the MIC50 [27] was 0.06 µg/mL (≈ 0.131 µM). For the same molecule, the “MIC Range” value ([28]; E. faecalis [tetS] (4 isolates)) was 0.25 to 0.5 µg/mL, the MIC50 ([28]; Enterococcus faecalis, E. faecalis [VSE] (31 isolates), read-out: MIC50) was 8 µg/mL (≈ 17.5 µM) and the MIC90 ([28]; Enterococcus faecalis, E. faecalis [VSE] (31 isolates), read-out: MIC90) was 16 µg/mL (≈ 35 µM). The “MIC Range” value ([29]; E. faecium [tetR] (6 isolates)) was 2 to 32 µg/mL, the “MIC Range” value ([29]; E. faecium [tetS] (4 isolates)) was 0.25 to 0.5 µg/mL and the MIC ([29]; E. faecium strain PBS # 965, tetM) was 8 µg/mL (≈ 17.5 µM). It also gave an MIC ([29]; E. faecium strain PBS # 1323, tetK) of 2 µg/mL (≈ 4.37 µM), an MIC ([29]; E. faecium strain PBS # 1324, tetO) of 2 µg/mL (≈ 4.37 µM) and an MIC50 ([29]; E. faecium [VRE] (30 isolates)) of 0.25 µg/mL (≈ 0.546 µM). It also gave an MIC90 ([29]; E. faecium [VRE] (30 isolates)) of 16 µg/mL (≈ 35 µM), an MIC50 ([29]; E. faecium [VSE] (32 isolates)) of 0.12 µg/mL (≈ 0.262 µM) and an MIC90 ([29]; E. faecium [VSE] (32 isolates)) of 16 µg/mL (≈ 35 µM). For the same molecule, the “MIC Range” value [30] was 0.5 to 4 µg/mL, the MIC50 ([31]; K. pneumoniae (31 isolates)) was 4 µg/mL (≈ 8.74 µM) and the MIC90 ([31]; K. pneumoniae (31 isolates)) was over 32 µg/mL. For the same molecule, the MIC ([31]; K. pneumoniae strain PBS # 266, tetD) was 64 µg/mL (≈ 140 µM).
